Assay results published in article PMC3506176 (Nature chemical biology, 2010).

Key:
oxytocin receptor [1] = biological target: T1, oxytocin receptor (Rattus norvegicus, UniProt P70536); format: binding; settings: mammary gland patches; excess of oxytocin 1 μM
T1 sequence (P70536 1-388): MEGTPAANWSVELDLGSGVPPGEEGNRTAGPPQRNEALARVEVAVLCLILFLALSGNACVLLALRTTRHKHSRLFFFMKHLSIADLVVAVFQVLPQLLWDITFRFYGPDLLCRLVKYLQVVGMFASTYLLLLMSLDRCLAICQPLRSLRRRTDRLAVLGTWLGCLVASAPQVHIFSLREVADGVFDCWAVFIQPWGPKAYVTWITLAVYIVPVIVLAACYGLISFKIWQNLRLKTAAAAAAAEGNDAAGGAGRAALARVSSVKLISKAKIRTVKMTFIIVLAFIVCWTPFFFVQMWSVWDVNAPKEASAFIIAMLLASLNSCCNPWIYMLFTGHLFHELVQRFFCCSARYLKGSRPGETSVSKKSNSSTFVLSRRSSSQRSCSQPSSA

oxytocin receptor [2] = biological target: T2, oxytocin receptor (Homo sapiens, UniProt P30559); experiment: Binding affinity of ligands for the oxytocin receptor
T2 sequence (P30559 1-389): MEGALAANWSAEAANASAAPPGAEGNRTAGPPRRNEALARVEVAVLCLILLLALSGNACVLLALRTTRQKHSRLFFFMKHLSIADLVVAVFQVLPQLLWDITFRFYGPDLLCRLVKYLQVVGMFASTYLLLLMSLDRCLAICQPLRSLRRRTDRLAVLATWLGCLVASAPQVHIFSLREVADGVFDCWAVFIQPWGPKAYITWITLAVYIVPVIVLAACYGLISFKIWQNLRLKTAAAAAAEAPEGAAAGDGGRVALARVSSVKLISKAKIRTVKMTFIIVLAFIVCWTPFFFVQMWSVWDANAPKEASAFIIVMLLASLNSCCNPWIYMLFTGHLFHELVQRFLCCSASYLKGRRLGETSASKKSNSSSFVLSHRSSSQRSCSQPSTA

dopamine D2 receptors = dopamine D2 receptors (Homo sapiens, UniProt P14416); format: binding; settings: read-out: IC50, inhibition of the FRET signal by increasing concentrations of NAPS; Cos7 cells transfected with D2 receptors; NAPS(Lumi4-Tb) (8) 1 nM and NAPS(d1) (9) 5 nM
dopamine D2 receptors, sequence (P14416 whole entry): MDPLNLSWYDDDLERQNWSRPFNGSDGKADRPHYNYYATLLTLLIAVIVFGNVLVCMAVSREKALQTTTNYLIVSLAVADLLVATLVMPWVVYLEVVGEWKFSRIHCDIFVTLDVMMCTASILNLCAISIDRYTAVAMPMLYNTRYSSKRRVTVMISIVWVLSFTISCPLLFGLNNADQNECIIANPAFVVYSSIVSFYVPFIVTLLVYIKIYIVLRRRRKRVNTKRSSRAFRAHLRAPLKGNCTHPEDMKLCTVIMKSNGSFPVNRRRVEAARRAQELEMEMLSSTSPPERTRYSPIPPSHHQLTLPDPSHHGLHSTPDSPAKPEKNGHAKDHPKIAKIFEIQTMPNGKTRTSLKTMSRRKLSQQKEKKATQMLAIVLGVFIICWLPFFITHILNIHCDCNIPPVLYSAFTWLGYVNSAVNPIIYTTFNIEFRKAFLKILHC

| Effect on the FRET signal between donor and acceptor antagonists (oxytocin receptor [1]) | Affinity for the oxytocin receptor (in words) (oxytocin receptor [2]) | Molecule | IC50 (dopamine D2 receptors) [nM] |
| --- | --- | --- | --- |
| not affected | no affinity | glucagon-like peptide 1 [GLP1] | – |
| – | poor affinity | d(CH2)5[DTyr(Et)2,Ile4,Eda(Alexa-647)9]VP [compound 14] | – |
| – | high affinities | HO-[Thr[4],Orn[8](Eu-PBBP)]VT [compound 5] | – |
| – | – | Nc1ccc(CCN2CN(c3ccccc3)C3(CCN(CCCC(=O)c4ccc(F)cc4)CC3)C2=O)cc1 [NAPS, N-(p-aminophenethyl)spiperone] | 1.9 |
| – | high affinities | HO-[Thr[4],Orn[8](Alexa-647)]VT [compound 6] | – |
